# Assay results published in ChEMBL document CHEMBL5614437, “Antibacterial and Anti-Inflammatory Activity of Branched Peptides Derived from Natural Host Defense Sequences” (J Med Chem, 2024).
# Activity calls are given as the source filed them. The calls are words filed in the database; no cut-off is given here. Bridges are numbered along the chain shown (N, C = ends). Roman numbers before positions name the chains, in order.
# What was measured:
# [1] = test system: Enterococcus faecalis; assay: Antibacterial activity against Enterococcus faecalis 51299 incubated for 12 hrs by microdilution method; assay type: functional
# [2] = test system: Escherichia coli; assay: Antibiofilm activity against 24 hrs preformed biofilm in Escherichia coli TG1 assessed as reduction in preformed biofilm incubated for 14 hrs by absorbance based analysis; assay type: functional
# [3] = test system: Cell membrane; assay: Induction of cytoplasmic membrane permeabilization in Escherichia coli TG1 assessed as increase in fluorescence incubated for 100 to 120 mins by PI/Sytox green dye based analysis; details: dose 1.5-3 µM, time 100-120 min
# [4] = test system: Cell membrane; assay: Induction of cytoplasmic membrane permeabilization in Escherichia coli TG1 assessed as increase in fluorescence at 2 times of MIC measured after 10 mins by PI/Sytox green dye based analysis; assay type: cell membranes
# [5] = test system: RAW264.7; assay: Cytotoxicity against mouse RAW264.7 cells assessed as cell death at 1 log concentration incubated for 4 to 24 hrs by crystal violet staining based analysis relative to control; assay type: toxicity; details: time 4-24 hrs
# [6] = Selectivity ratio of biofilm prevention concentration for antibiofilm activity against Escherichia coli TG1 to MIC for antibacterial activity against Escherichia coli TG1; assay type: functional
# [7] = test system: Klebsiella pneumoniae; assay: Antibiofilm activity against 24 hrs preformed biofilm in Klebsiella pneumoniae ATCC43816 assessed as reduction in preformed biofilm incubated for 14 hrs by absorbance based analysis; assay type: functional
# [8] = test system: Escherichia coli; assay: Antibiofilm activity against Escherichia coli TG1 assessed as inhibition of biofilm formation incubated for 24 hrs by absorbance based analysis; assay type: functional
# [9] = test system: Klebsiella pneumoniae; assay: Antibiofilm activity against Klebsiella pneumoniae ATCC43816 assessed as inhibition of biofilm formation incubated for 24 hrs by absorbance based analysis; assay type: functional
# [10] = test system: Cell membrane; assay: Induction of cytoplasmic membrane permeabilization in Escherichia coli TG1 assessed as loss of surface smoothness at 2 times of MIC measured after 30 to 60 mins by SEM analysis; details: time 30-60 min
# [11] = test system: Escherichia coli; assay: Antibacterial activity against Escherichia coli TG1 incubated for 12 hrs by microdilution method; assay type: functional
# [12] = test system: Lipopolysaccharide (LPS); assay: Binding affinity to biotin-tagged LPS (unknown origin) preincubated for 30 mins followed by compound addition and 30 mins of incubation with streptavidin-POD by ELISA based microplate spectrophotometer; assay type: subcellular; details: dose 1-10 µg/ml
# [13] = test system: Klebsiella pneumoniae; assay: Antibacterial activity against colistin-resistant Klebsiella pneumoniae incubated for 12 hrs by microdilution method; assay type: functional
# [14] = test system: Pseudomonas aeruginosa; assay: Antibacterial activity against Pseudomonas aeruginosa ATCC 27853 incubated for 12 hrs by microdilution method; assay type: functional
# [15] = test system: RAW264.7; assay: Cytotoxicity against mouse RAW264.7 cells assessed as cell killing incubated for 4 to 24 hrs by crystal violet staining based analysis; assay type: toxicity; details: time 4-24 hrs
# [16] = test system: Cell membrane; assay: Induction of cytoplasmic membrane permeabilization in Escherichia coli TG1 assessed as wrinkling of membrane surface at 2 times of MIC measured after 30 to 60 mins by SEM analysis; details: time 30-60 min
# [17] = test system: Cell membrane; assay: Induction of cytoplasmic membrane permeabilization in Escherichia coli TG1 assessed as increase in fluorescence at MIC measured after 40 to 50 mins by PI/Sytox green dye based analysis; details: time 40-50 min
# [18] = test system: Erythrocyte; assay: Hemolytic activity in human RBC assessed as hemolysis at ~15 uM incubated for 2 hrs by absorbance based plate reader analysis; assay type: toxicity, cell-based
# [19] = test system: Escherichia coli; assay: Antibacterial activity against Escherichia coli clinical isolate LC711/14 incubated for 12 hrs by microdilution method; assay type: functional
# [20] = Stability of compound in human serum at 180 uM measured after 4 hrs by HPLC-MS analysis; assay type: ADME, cell-free
# [21] = test system: Klebsiella pneumoniae; assay: Antibacterial activity against Klebsiella pneumoniae ATCC43816 incubated for 12 hrs by microdilution method; assay type: functional
# [22] = test system: Staphylococcus aureus; assay: Antibacterial activity against Staphylococcus aureus USA300 incubated for 12 hrs by microdilution method; assay type: functional
# [23] = Stability of compound in human serum at 180 uM measured after 24 hrs by HPLC-MS analysis; assay type: ADME, cell-free
# [24] = test system: Cell membrane; assay: Induction of cytoplasmic membrane permeabilization in Escherichia coli TG1 assessed as enlargement of bacterial cells at 2 times of MIC measured after 30 to 60 mins by SEM analysis; assay type: cell membranes; details: time 30-60 min
# [25] = test system: Erythrocyte; assay: Hemolytic activity in human RBC assessed as hemolysis at 0.25 to 100 uM incubated for 2 hrs by absorbance based plate reader analysis; assay type: toxicity, cell-based; details: dose 0.25-100 µM
# [26] = Selectivity ratio of MBIC80 for antibiofilm activity against preformed biofilm in Escherichia coli TG1 to MIC for antibacterial activity against Escherichia coli TG1; assay type: functional
# [27] = test system: Escherichia coli; assay: (§1) Antibacterial activity against Escherichia coli TG1 transfected with pGEN-luxCDABE plasmid infected in female BALB/C mouse model of skin infection assessed as reduction in bacterial burden at 16 mg/kg, SC pre-infected with bacteria for 2 hrs followed by compound administration and measured after 2 to 3 days by luminescence imaging analysis; assay type: functional, organism-based; details: time 2-3 day
# [28] = test system: Pseudomonas aeruginosa; assay: Antibacterial activity against Pseudomonas aeruginosa clinical isolate FI-29 expressing GES-5 beta-lactamase incubated for 12 hrs by microdilution method; assay type: functional
# [29] = test system: Escherichia coli; assay: as §1, with “on day” for “after”, “2” for “2 to 3 days”, “analysis relative to control” for “analysis”; assay type: functional; set-up: scale not given: the % may be the effect or the level left; details: time 2 day
# [30] = test system: Mus musculus; assay: Anti-inflammatory activity in female BALB/C skin infection mouse model infected with Escherichia coli TG1 transfected with pGEN-luxCDABE plasmid assessed as reduction in monocyte number in skin at 16 mg/kg, SC pre-infected with bacteria for 2 hrs followed by compound administration and measured after 3 days by DAPI staining based immunohistochemical analysis; assay type: functional, organism-based; details: time 3.0 day
# [31] = test system: Enterococcus faecium; assay: Antibacterial activity against vancomycin-resistant Enterococcus faecium clinical isolate FI-48 incubated for 12 hrs by microdilution method; assay type: functional
# [32] = test system: Erythrocyte; assay: Hemolytic activity in human RBC assessed as hemolysis at 5 uM incubated for 2 hrs by absorbance based plate reader analysis; assay type: toxicity, cell-based
# [33] = test system: Pseudomonas aeruginosa; assay: Antibacterial activity against Pseudomonas aeruginosa clinical isolate FI-25 expressing VIM-1 metallo-beta-lactamase incubated for 12 hrs by microdilution method; assay type: functional
# [34] = test system: Cell membrane; assay: Disruption of outer membrane integrity in Escherichia coli TG1 assessed as formation of blisters outside the cell measured after 60 mins by TEM analysis; assay type: cell membranes
# [35] = test system: Cell membrane; assay: Disruption of outer membrane integrity in Escherichia coli TG1 assessed as loss of double layer integrity measured after 60 mins by TEM analysis
Substance,MIC [1] [µM],MBIC80 [2] [µM],Activity [3],Activity [4],Activity [5] [%],MBIC80 [7] [µM],Activity [10],MIC [11] [µM],Activity [12],MIC [13] [µM],MIC [14] [µM],LC50 [15],Activity [16],Activity [17],MIC [19] [µM],Stability [20],MIC [21] [µM],MIC [22] [µM],Stability [23],Activity [24],also measured
"I: H-GRFKRFRKKLKK-NH2 / II: H-GRFKRFRKKLK / III: H-GRFKRFRKKL / IV: H-GRFKRFRKKL (amide I:11-IV:C, I:12-II:C, II:11-III:C)",> 25,50,Dose-Dependent Effect,Active,100,50,Active,6,Dose-Dependent Effect,> 25,6,1.258 10^-5M,Active,Active,> 25,Stable,25,> 25,Unstable,Active,Selectivity ratio [6]: 4; IC20 [8]: 25 µM; IC20 [9]: 50 µM; Activity [18]: Toxic
"I: H-KKLLGKNWKLMKK-NH2 / II: H-KKLLGKNWKLMK / III: H-KKLLGKNWKLM / IV: H-KKLLGKNWKLM (amide I:12-IV:C, I:13-II:C, II:12-III:C)",> 25,25,Dose-Dependent Effect,Active,100,50,Active,3,Dose-Dependent Effect,> 25,3,1 10^-5M,Active,Active,> 25,Stable,25,> 25,Stable,Active,Activity [25]: Non-Toxic; Selectivity ratio [26]: 8
"I: H-TLLKKVLKAAAKKK-NH2 / II: H-TLLKKVLKAAAKK / III: H-TLLKKVLKAAAK / IV: H-TLLKKVLKAAAK (amide I:13-IV:C, I:14-II:C, II:13-III:C)",25,3,Dose-Dependent Effect,Active,100,50,Active,1.5,Dose-Dependent Effect,6,6,4.405 10^-7M,Active,Active,3,Stable,6,> 25,Stable,Active,Activity [27]: Active; MIC [28]: 12 µM; IC20 [8]: 1.5 µM; Activity [29]: 75%; IC20 [9]: 50 µM; Activity [30]: Active; MIC [31]: 6 µM; Activity [32]: Toxic; MIC [33]: 12 µM; Activity [34]: Active; Activity [35]: Active
